Assay results from publication PMC5458078, “Global mapping of CARM1 substrates defines enzyme specificity and substrate recognition” (Nature Communications, 2017).
Where two headings read alike, the source gives them in different places.

Assays:
[1] = tested on: MCF7 cells; experiment: Quantitative nanoLC-MS/MS (TMT) of ADMA-containing peptides, CARM1 KO vs parental; assay type: cell-based, human; parameters: Fold change KO/WT: scale not given here
[2] = tested on: MCF7 CARM1 KO cells; experiment: Quantitative MS of ADMA-containing peptides in MCF7 CARM1 KO cells expressing CARM1 28-608 or CARM1 140-608, and in CARM1 KO; assay type: cell-based, human
[3] = MCF7, CARM1 KO (KO1-KO3) vs wild type (WT1-WT3)
[4] = CARM1 140-608 vs WT, mean of 3 replicates (log2 scale)
[5] = KO vs WT, mean of 3 replicates (log2 scale)
[6] = CARM1 140-608 versus WT, mean of three replicates (log2)
[7] = KO versus WT, mean of three replicates (log2)
[8] = MCF7 CARM1 knockout vs wild type, 3 biological replicates each, values are on log2 scale
[9] = mean, CARM1 140-608 versus WT (log2 scale)
[10] = mean, CARM1 KO versus WT (log2 scale)
[11] = CARM1 KO vs wild type MCF7 cells, 3 biological replicates each
[12] = MCF7, CARM1 knockout vs wild type, n = 3 each
[13] = ratio on log2 scale, mean of 3 replicates
[14] = MCF7, CARM1 KO vs WT, three biological replicates each
[15] = CARM1 140-608 vs WT, mean of 3 replicates, log2
[16] = KO vs WT, mean of 3 replicates, log2
[17] = ADMA-containing peptide, CARM1 knockout (KO) vs wild type (WT) MCF7 cells, 6-plex TMT experiment #1, three biological replicates each, sheet "MCF7"
[18] = ADMA-containing peptide, MCF7, CARM1 knockout (KO1-3) vs wild type (WT1-3), TMT 6-plex experiment #1
[19] = log2 scale ratio, mean of n = 3
[20] = CARM1 140-608 versus WT, difference of mean log2 values
[21] = CARM1 KO versus WT, difference of mean log2 values

In the case of “MGTPVPRPPQDMGQIGVrTPLGPrVAAPVGPVGPTPTVLPMGAPVPrPrGPPPPPGDENR”, the “Fold change KO/WT” value [1, 3] is reported as -3.294, the “CARM1 140-608/WT” value [2, 4] is reported as -2.604 and the KO/WT [2, 5] is reported as -3.5517.

In the case of RPPPEHFrRPPPEHFR, the “Fold change KO/WT” value [1, 3] is reported as -0.5356, the “CARM1 140-608/WT” value [2, 6] is reported as -0.8789 and the KO/WT [2, 7] is reported as -0.5356.

In the case of MGAGMGFGLErMAAPIDR, the “Fold change KO/WT” value [1, 8] is reported as -3.039, the “CARM1 140-608/WT” value [2, 9] is reported as -2.085 and the KO/WT [2, 10] is reported as -3.039.

In the case of “GGrFSAQGMGTFNPADYAEPANTDDNYGNSSGNTWNNTGHFEPDDGTSAWR”, the “Fold change KO/WT” value [1, 11] is reported as -0.4035.

In the case of GGFQNrGGGSGGGGNYrGGFNR, the “Fold change KO/WT” value [1, 8] is reported as 0.1419.

In the case of VrLPCQPLVPGPELRPSAAELK, the “Fold change KO/WT” value [1, 8] is reported as -2.704, the “CARM1 140-608/WT” value ([2]; difference of log2 means, CARM1 140-608 vs WT) is reported as -1.578 and the KO/WT ([2]; difference of log2 means, KO vs WT) is reported as -2.704.

LLFQNLWKPrLNVP was tested, and the “Fold change KO/WT” value [1, 12] was -4.157, the “CARM1 140-608/WT” value [2, 13] was -1.893 and the KO/WT [2, 13] was -4.858.

In the case of QLPNAGPGAPPALGFSrFPAGAR, the “Fold change KO/WT” value [1, 14] is reported as -2.458, the “CARM1 140-608/WT” value [2, 15] is reported as -1.8557 and the KO/WT [2, 16] is reported as -2.458.

With LNASIAGLFPPQINIPLPPrPNLNR the “Fold change KO/WT” value [1, 17] was -2.4198, the “CARM1 140-608/WT” value [2, 6] was -1.542 and the KO/WT [2, 7] was -2.454.

With LGQDPYrLGHDPYR the “Fold change KO/WT” value [1, 18] was -1.973, the “CARM1 140-608/WT” value [2] was -1.933 and the KO/WT [2] was -1.973.

In the case of GPLPPPRPTPrPPVPPrGPLrGPLPQ, the “Fold change KO/WT” value [1, 3] is reported as -0.7434, the “CARM1 140-608/WT” value [2, 4] is reported as 0.8489 and the KO/WT [2, 5] is reported as -0.7434.

With “DGLTPVPPLAPAPrPPSSGLPAVLNPrPTLTPGrLPTPTLGTArAPMPTPTLVrPLLK” the “Fold change KO/WT” value [1, 18] was -3.645, the “CARM1 140-608/WT” value [2, 19] was -0.2727 and the KO/WT [2, 19] was -4.325.

For NrGFYPWGQYNrGGYGNYR, the “Fold change KO/WT” value [1, 18] was -0.1483.

With FCAFGGNPPVTGPrSALAPNLLTSGK the “Fold change KO/WT” value [1, 14] was -4.63, the “CARM1 140-608/WT” value [2, 15] was -3.4143 and the KO/WT [2, 16] was -5.047.

With “HQQLQQMrMQQPPAPVPTTTTTTQQHPrQAAPQMLQQQPPrLISVQTMQR” the “Fold change KO/WT” value [1, 18] was -1.659, the “Fold change KO/WT” value [1, 11] was -1.574 and the “CARM1 140-608/WT” value [2, 20] was -0.9301. For the same substance, the KO/WT [2, 21] was -2.355.

ErDQLYYECYSDVSVHEEMIADR was tested, and the “Fold change KO/WT” value [1, 3] was -0.1341, the “CARM1 140-608/WT” value [2, 6] was -0.3168 and the KO/WT [2, 7] was -0.6326.

LLALSGPGGGrGrGSLLLR was tested, and the “Fold change KO/WT” value [1, 17] was 0.2339, the “CARM1 140-608/WT” value [2, 6] was -0.3383 and the KO/WT [2, 7] was -0.09674.

LAQNAArIPGIPrHSGPQYSMMQPHLQR was tested, and the “Fold change KO/WT” value [1, 11] was -2.189, the “CARM1 140-608/WT” value [2, 20] was -0.4462 and the KO/WT [2, 21] was -2.068.

With ACLTSGTPGPrAQLTAVTPDTR the “Fold change KO/WT” value [1, 8] was -1.3764, the “CARM1 140-608/WT” value [2, 9] was -1.022 and the KO/WT [2, 10] was -1.3764.

RGPPPPPPGrGGrGGSR was tested, and the “Fold change KO/WT” value [1, 8] was 0.3155, the “CARM1 140-608/WT” value [2, 9] was 0.09749 and the KO/WT [2, 10] was 0.3155.

For “KVPQPCSSATLNrLTVPrYSIPTGDPPPYPEIASQLAQGR”, the “Fold change KO/WT” value [1, 11] was -4.368, the “CARM1 140-608/WT” value [2, 20] was -2.332 and the KO/WT [2, 21] was -4.368.

DFAFYNPrLQGK was tested, and the “Fold change KO/WT” value [1, 14] was -2.168, the “CARM1 140-608/WT” value [2, 15] was -2.071 and the KO/WT [2, 16] was -2.382.

In the case of SYGLGSEQrSQAPArYSLQSANASSLSSGQLK, the “Fold change KO/WT” value [1, 14] is reported as -5.372, the “CARM1 140-608/WT” value [2, 15] is reported as -3.897 and the KO/WT [2, 16] is reported as -5.372.

With LIAAAQSGLPVrIESIK the “Fold change KO/WT” value [1, 3] was -0.4316, the “CARM1 140-608/WT” value [2, 4] was -0.3613 and the KO/WT [2, 5] was -0.4316.

YRPYDGAASAYAQNYrYPEPERPSSR was tested, and the “Fold change KO/WT” value [1, 3] was -0.7141, the “CARM1 140-608/WT” value [2, 4] was -1.157 and the KO/WT [2, 5] was -0.7141.

In the case of ErDMQYVQR, the “Fold change KO/WT” value [1, 11] is reported as 1.019, the “CARM1 140-608/WT” value [2, 20] is reported as 0.06744 and the KO/WT [2, 21] is reported as 1.019.

ITVPrLSVGSVTSrPSTPTLGTPTPQTMSVSTK was tested, and the “Fold change KO/WT” value [1, 18] was -2.222, the “CARM1 140-608/WT” value [2, 19] was -1.745 and the KO/WT [2, 19] was -2.222.

In the case of ANYNFrGMYNQrYHCPVPK, the “Fold change KO/WT” value [1, 18] is reported as -3.002, the “CARM1 140-608/WT” value [2] is reported as -2.05 and the KO/WT [2] is reported as -3.002.

For GPVTPGGLPPrGLLGDAPNDPR, the “Fold change KO/WT” value [1, 12] was -1.652, the “CARM1 140-608/WT” value [2, 13] was -1.495 and the KO/WT [2, 13] was -1.652.

In the case of “TATVTIrPNTSGSGGTTSNSQVITGPQIrPGMTVIRTPLQQSTLGK”, the “Fold change KO/WT” value [1, 14] is reported as -1.078, the “CARM1 140-608/WT” value [2, 15] is reported as 2.998 and the KO/WT [2, 16] is reported as -1.078.

QVTITGSAASISLAQYLINAr was tested, and the “Fold change KO/WT” value [1, 17] was -0.8472.

For QGSIGLYTQNQPLPAGGPrVDPYrPVRLPMQK, the “Fold change KO/WT” value [1, 17] was -2.102.

AYGQQYWGQPGNrGGYR was tested, and the “Fold change KO/WT” value [1, 8] was -0.04736.

In the case of LPNRDFAFYNPrLQGK, the “Fold change KO/WT” value [1, 14] is reported as -1.34.

In the case of SAGGRPGSGPQLGTGrGTLR, the “Fold change KO/WT” value [1, 12] is reported as -0.3785.

With LLGQRPGPYDrPIGGrGGYYGAGrGSMYDR the “Fold change KO/WT” value [1, 8] was -0.2245.

“RPQLYGMGSNPHSQPQQSSPYPGGSYGPPGPQrYPIGIQGR” was tested, and the “Fold change KO/WT” value [1, 14] was -1.511.

For LPPDRYCLTAPNYrLK, the “Fold change KO/WT” value [1, 18] was -0.4021.

“VPASPQSQSSSQSPLTPrPLSAEAFCPSPVTPRFQSPDPYSRPPSRPQSR” was tested, and the “Fold change KO/WT” value [1, 8] was -2.744.

With GAEAANVTGPDGVPVEGSrYAADR the “Fold change KO/WT” value [1, 11] was -1.299.

With AGPrLLLIPVQQGSPTLrPVSNTQLQGHrMVLQPVR the “Fold change KO/WT” value [1, 17] was -0.8102.

“MGTPVPRPPQDMGQIGVrTPLGPRVAAPVGPVGPTPTVLPMGAPVPrPR” was tested, and the “Fold change KO/WT” value [1, 3] was -3.4667.

For PABP1: a known CARM1 substrate, the “Decrease of ADMA site abundance on CARM1 loss” value ([1]; CARM1 KO vs parental MCF7 cells) was “slightly over twofold”.

In the case of EELLrHQLLEKR, the “Fold change KO/WT” value [1, 14] is reported as -2.786.

With ICEGIrPQIMNGPLHPRPLVALLDGR the “CARM1 140-608/WT” value [2, 13] was -0.2372 and the KO/WT [2, 13] was -0.9025.

With DLYANTVLSGGSTMYPGIADr the “Fold change KO/WT” value [1, 14] was 0.2012.
